Data: PMC3477601 (Bioorganic & medicinal chemistry letters, 2012)
Values joined by “and” are separate entries in the source; they are usually repeats but may differ in a detail not shown here. Equal entries are not always repeated. Where two headings read alike, the source gives them in different places.

How the values were obtained:
PPAR-α [1] = biological target: T1, PPAR-α (Mus musculus, UniProt P23204); details: dynamic PET 0–60 min post iv injection
PPAR-α [2] = biological target: T1, PPAR-α; details: post-PET
[3] = PPAR-α overexpressing transgenic mice

T1 sequence (P23204 whole entry): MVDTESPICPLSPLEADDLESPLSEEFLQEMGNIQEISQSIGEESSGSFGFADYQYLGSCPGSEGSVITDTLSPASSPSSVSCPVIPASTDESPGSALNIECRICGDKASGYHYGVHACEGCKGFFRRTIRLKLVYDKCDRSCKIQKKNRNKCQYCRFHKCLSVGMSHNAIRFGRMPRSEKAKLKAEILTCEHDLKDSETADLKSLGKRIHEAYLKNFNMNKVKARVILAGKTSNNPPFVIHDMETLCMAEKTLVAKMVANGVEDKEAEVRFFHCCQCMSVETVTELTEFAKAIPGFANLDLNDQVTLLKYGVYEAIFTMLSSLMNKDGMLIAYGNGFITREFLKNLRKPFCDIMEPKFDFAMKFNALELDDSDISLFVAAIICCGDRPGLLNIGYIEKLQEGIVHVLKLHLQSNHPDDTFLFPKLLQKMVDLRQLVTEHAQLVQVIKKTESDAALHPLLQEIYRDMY

In the case of `CC(C)(Sc1ccc(CCN(CCCCC2CCCCC2)C(=O)Nc2ccc(O[11CH3])cc2)cc1)C(=O)O` [[^11C]KSM-01], the “Standard uptake value (SUV)” value (PPAR-α [1]; [3]) is reported as 0.68±0.007, the “Standard uptake value (SUV)” value (PPAR-α [1]; control (wild-type) mice) is reported as 0.37±0.09 and the Cardiac tissue uptake (PPAR-α [2]; [3]) is reported as 1.09 ± 0.246 %ID/g. The Blood uptake (PPAR-α [2]; TG (male MHC PPAR-α overexpressing transgenic mice)) was 0.42±0.14 %ID/g, the Kidney uptake (PPAR-α [2]; TG) was 2.58±0.56 %ID/g and the Liver uptake (PPAR-α [2]; TG) was 55.031 ± 4.926 %ID/g. The Lung uptake (PPAR-α [2]; TG) was 2.65±0.34 %ID/g, the Muscle uptake (PPAR-α [2]; TG) was 0.36±0.15 %ID/g and the Spleen uptake (PPAR-α [2]; TG) was 1.33±0.29 %ID/g. For the same molecule, the Blood uptake (PPAR-α [2]; WT (wild type mice)) was 0.42±0.10 %ID/g, the Liver uptake (PPAR-α [2]; WT) was 60.699 ± 0.774 %ID/g and 60.69±0.77 %ID/g and the Lung uptake (PPAR-α [2]; WT) was 2.11±0.31 %ID/g. It also gave a Muscle uptake (PPAR-α [2]; WT) of 0.35±0.18 %ID/g, a Spleen uptake (PPAR-α [2]; WT) of 1.55±0.14 %ID/g and a Cardiac tissue uptake (PPAR-α [2]; wild type littermates) of 0.479 ± 0.007 %ID/g.
